Test results published in patent US20260374773A1, “MULTI-CYCLIC IRAK AND FLT3 INHIBITING COMPOUNDS AND USES THEREOF” (CHILDREN'S HOSPITAL MEDICAL CENTER, priority 2022, published 2026).

Experiments:
FLT3 ITD = target: T1, FLT3 ITD (Homo sapiens, UniProt P36888, ITD); assay: DiscoverX KINOMEscan active site-directed competition binding, FLT3 ITD; details: no ATP
T1 construct: T7 phage/E. coli or HEK-293 expression
T1 sequence (P36888 27-993): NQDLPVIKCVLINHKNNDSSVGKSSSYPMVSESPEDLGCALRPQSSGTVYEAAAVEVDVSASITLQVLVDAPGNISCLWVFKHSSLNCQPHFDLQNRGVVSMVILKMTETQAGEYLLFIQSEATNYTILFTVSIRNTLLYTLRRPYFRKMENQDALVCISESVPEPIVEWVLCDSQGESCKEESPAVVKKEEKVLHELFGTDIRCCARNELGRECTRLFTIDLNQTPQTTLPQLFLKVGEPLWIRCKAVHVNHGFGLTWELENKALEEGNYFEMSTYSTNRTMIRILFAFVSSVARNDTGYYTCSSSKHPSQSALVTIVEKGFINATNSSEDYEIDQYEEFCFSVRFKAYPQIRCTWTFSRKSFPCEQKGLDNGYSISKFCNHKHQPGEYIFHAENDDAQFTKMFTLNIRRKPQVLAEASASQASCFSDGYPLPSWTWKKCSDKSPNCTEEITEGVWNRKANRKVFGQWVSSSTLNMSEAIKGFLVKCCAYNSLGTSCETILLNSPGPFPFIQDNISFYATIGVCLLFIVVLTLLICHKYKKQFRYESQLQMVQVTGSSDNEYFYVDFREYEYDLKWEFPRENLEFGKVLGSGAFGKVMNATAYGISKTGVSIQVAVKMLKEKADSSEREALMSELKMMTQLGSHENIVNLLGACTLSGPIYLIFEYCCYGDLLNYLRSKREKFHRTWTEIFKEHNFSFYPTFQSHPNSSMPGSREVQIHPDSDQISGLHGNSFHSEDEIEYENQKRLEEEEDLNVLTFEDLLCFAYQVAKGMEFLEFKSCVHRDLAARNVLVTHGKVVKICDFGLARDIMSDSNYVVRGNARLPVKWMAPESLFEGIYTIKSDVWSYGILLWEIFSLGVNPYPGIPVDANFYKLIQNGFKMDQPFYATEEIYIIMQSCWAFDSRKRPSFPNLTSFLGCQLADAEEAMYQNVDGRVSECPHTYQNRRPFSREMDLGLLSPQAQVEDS
Description: (§1) Kinase binding data were obtained for various exemplary compounds prepared according to Examples 1-8 using the DiscoverX KINOMEscan® active site-directed competition binding site-directed assay protocol described below. […] As a result, the data report thermodynamic interaction affinities (Kd values), rather than IC50 values that are dependent on ATP concentrations. The assay uses a DNA-tagged version of the protein kinase, and an immobilized ligand bound to a solid support. Compounds that directly or indirectly prevent kinase binding to the immobilized ligand reduce the amount of kinase captured on the solid support, which is detected using an ultra-sensitive qPCR method. Affinity constants reported from the assay have been reported to be independent of the immobilized ligand used that is coupled to the solid support (See supplemental information in Fabian, M. A. et. al., (2005) Nat. Biotechnol. 23, 329-336; Wodicka, L. M. et. al., (2010) Chem. Biol. 17, 1241-1249.)
(§2) Kinase-tagged T7 phage strains were prepared in an E. coli host derived from the BL21 strain. E. coli were grown to log-phase and infected with T7 phage and incubated with shaking at 32 °C until lysis. The lysates were centrifuged and filtered to remove cell debris. The remaining kinases were produced in HEK-293 cells and subsequently tagged with DNA for qPCR detection. Streptavidin-coated magnetic beads were treated with biotinylated small molecule ligands for 30 minutes at room temperature to generate affinity resins for kinase assays. The liganded beads were blocked with excess biotin and washed with blocking buffer (SeaBlock (Pierce), 1% BSA, 0.05% Tween 20, 1 mM DTT) to remove unbound ligand and to reduce non-specific binding. […] Test compounds were prepared as 111x stocks in 100% DMSO. Kds were determined using an 11-point 3-fold compound dilution series with three DMSO control points. All compounds for Kd measurements are distributed by acoustic transfer (non-contact dispensing) in 100% DMSO. The compounds were then diluted directly into the assays such that the final concentration of DMSO was 0.9%. All reactions were performed in polypropylene 384-well plates. Each was a final volume of 0.02 mL. The assay plates were incubated at room temperature with shaking for 1 hour and the affinity beads were washed with wash buffer (1×PBS, 0.05% Tween 20). The beads were then re-suspended in elution buffer (1×PBS, 0.05% Tween 20, 0.5 μM nonbiotinylated affinity ligand) and incubated at room temperature with shaking for 30 minutes. The kinase concentration in the eluates was measured by qPCR. Binding constants (Kds) were calculated with a standard dose-response curve using the Hill equation. The Hill Slope was set to −1. Curves were fitted using a non-linear least square fit with the Levenberg-Marquardt algorithm.
as §1, with “9-12” for “1-8”
(§3) Kinase-tagged T7 phage strains were prepared in an E. coli host derived from the BL21 strain. […]

FLT3 ITD, F691L = target: T2, FLT3 ITD, F691L (Homo sapiens, UniProt P36888, F691L/ITD); assay: DiscoverX KINOMEscan active site-directed competition binding, FLT3 ITD, F691L; details: no ATP
T2 construct: F691L gatekeeper
T2 sequence (P36888 27-993 F691L): T1 sequence (P36888 27-993)
Description: as §1, §2
as §1, with “9-12” for “1-8”
as §3

| Kd (FLT3 ITD; Table 18) | Kd (FLT3 ITD, F691L; Table 19) | Kd (FLT3 ITD; Table 12) | Kd (FLT3 ITD, F691L; Table 13) | Compound |
| --- | --- | --- | --- | --- |
| 0.39 nM | < 0.17 nM | – | – | COc1cn2ncc(-c3cncc(N[C@H]4CNCC[C@@H]4F)n3)c2nc1C1CC1 [Compound 12a, 6-(5-cyclopropyl-6-methoxypyrazolo[1,5-a]pyrimidin-3-yl)-N-((3S,4S)-4-fluoropiperidin-3-yl)pyrazin-2-amine] |
| – | – | 0.41 nM | < 0.17 nM | COc1cn2ncc(-c3nc(N[C@H]4CNCC[C@@H]4F)c(C#N)cc3F)c2nc1C1CC1 [Compound 7, 6-(5-cyclopropyl-6-methoxypyrazolo[1,5-a]pyrimidin-3-yl)-5-fluoro-2-(((3S,4S)-4-fluoropiperidin-3-yl)amino)nicotinonitrile] |
| 0.23 nM | < 0.17 nM | – | – | COc1cn2ncc(-c3nc(N[C@H]4CNCC[C@@H]4F)ncc3F)c2nc1C(C)(C)O [Compound 6a, 2-(3-(5-fluoro-2-(((3S,4S)-4-fluoropiperidin-3-yl)amino)pyrimidin-4-yl)-6-methoxypyrazolo[1,5-a]pyrimidin-5-yl)propan-2-ol] |
| – | – | 0.21 nM | < 0.17 nM | COc1cn2ncc(-c3nc(N[C@H]4CNCC[C@@H]4F)c(F)cc3F)c2nc1C(C)(C)O [Compound 13, 2-(3-(3,5-difluoro-6-(((3S,4S)-4-fluoropiperidin-3-yl)amino)pyridin-2-yl)-6-methoxypyrazolo[1,5-a]pyrimidin-5-yl)propan-2-ol] |
| 0.53 nM | < 0.17 nM | – | – | COc1cn2ncc(-c3ccnc(N[C@H]4CNCC[C@@H]4F)n3)c2nc1C1CC1 [Compound 7a, 4-(5-cyclopropyl-6-methoxypyrazolo[1,5-a]pyrimidin-3-yl)-N-((3S,4S)-4-fluoropiperidin-3-yl)pyrimidin-2-amine] |
| 0.25 nM | < 0.17 nM | – | – | COc1cn2ncc(-c3nc(N[C@H]4CNCC[C@@H]4F)ncc3F)c2nc1C1CC1 [Compound 15a, 4-(5-cyclopropyl-6-methoxypyrazolo[1,5-a]pyrimidin-3-yl)-5-fluoro-N-((3S,4S)-4-fluoropiperidin-3-yl)pyrimidin-2-amine] |
| – | – | 0.28 nM | < 0.17 nM | COc1cn2ncc(-c3nc(N[C@H]4CNCC[C@@H]4F)c(C#N)cc3F)c2nc1C(C)(C)O [Compound 10, 5-fluoro-2-(((3S,4S)-4-fluoropiperidin-3-yl)amino)-6-(5-(2-hydroxypropan-2-yl)-6-methoxypyrazolo[1,5-a]pyrimidin-3-yl)nicotinonitrile] |
| < 0.17 nM | < 0.17 nM | – | – | COc1cn2ncc(-c3nc(N[C@@H]4CCCNC4)ncc3F)c2nc1C1CC1 [Compound 14a, (R)-4-(5-cyclopropyl-6-methoxypyrazolo[1,5-a]pyrimidin-3-yl)-5-fluoro-N-(piperidin-3-yl)pyrimidin-2-amine] |
